Drawing on patent US8906952B2, “Indole derivative or pharmaceutically acceptable salt thereof, preparation method thereof, and pharmaceutical composition for preventing or treating metabolic diseases containing same as active ingredient” (Korea Research Institute of Bioscience and Biotechnology, priority 2011, dated 2014), this text covers IC50, activity and inhibition for 18 molecules.

The target of assay [1] is T1, hDGAT-1 (HuTu 80) (Homo sapiens, UniProt O75907).
T1 construct: microsomal protein isolated from human duodenal adenocarcinoma (‘Hutu 80’); endogenous in cells; host or cells: HuTu 80 human duodenal adenocarcinoma cells (microsomes)
T1 sequence (O75907 1-488): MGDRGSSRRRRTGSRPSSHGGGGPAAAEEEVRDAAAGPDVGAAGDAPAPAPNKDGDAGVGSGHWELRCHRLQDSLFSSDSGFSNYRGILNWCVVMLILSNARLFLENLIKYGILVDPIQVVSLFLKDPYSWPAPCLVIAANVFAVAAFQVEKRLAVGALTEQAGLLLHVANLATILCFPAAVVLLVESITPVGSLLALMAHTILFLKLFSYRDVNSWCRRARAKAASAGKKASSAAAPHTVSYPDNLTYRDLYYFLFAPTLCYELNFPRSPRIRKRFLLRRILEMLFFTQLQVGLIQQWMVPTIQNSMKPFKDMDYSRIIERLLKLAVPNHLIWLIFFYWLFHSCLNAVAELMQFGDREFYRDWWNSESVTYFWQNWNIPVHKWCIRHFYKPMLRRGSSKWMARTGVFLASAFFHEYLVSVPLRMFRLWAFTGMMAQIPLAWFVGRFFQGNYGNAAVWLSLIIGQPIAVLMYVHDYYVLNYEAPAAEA
As to the kind of experiment: DGAT enzyme inhibition test, microsomal protein from human duodenal adenocarcinoma (Hutu 80). The assay is classed as biochemical. Particulars: microsomal protein from HuTu 80. The source says:
To investigate inhibitory effect of the compounds of Examples 1-33 against DGAT enzyme activity, DGAT enzyme inhibition and DGAT2 selectivity were investigated using zymogen including:
2) DGAT enzyme derived from human duodenal adenocarcinoma (‘Hutu 80’), and
To be specific, for the purpose of measuring human-derived DGAT enzyme inhibitory activity, using the zymogen, including enzymes derived from insect cell overexpressing human DGAT1 and DGAT2 (‘sf9’), microsomal protein isolated from human duodenal adenocarcinoma (‘Hutu 80’), and microsomal protein isolated from rat, and according to Coleman et al., (Methods Enzymol., 98-103, 1992), and substrate including 1,2-diacylglycerol(Sigma, D0138) and [^14C]palmitoyl-CoA (Amersham, CFA583), the amount of radiation of [^14C]triacylglycerol produced after enzymatic reaction was measured.
To be more specific, to the reaction solution containing 175 mM Tris-HCl (pH 8.0), 20 μl bovine serum albumin (10 mg/ml), 100 mM magnesium chloride, 30 μM [^14C]palmitoyl CoA (0.02 μCi, Amersham) and 200 μM 1,2-dioleoylglycerol, reagent dissolved in dimethylsulfoxide (10.0 μl) was added. After introducing 100 to 200 μg isolated microsomal protein and allowing the same to react at 25° C. for 10 min, the reaction was stopped by adding 1.5 ml stop solution (2-propanol:heptane:water=80:20:2, v:v:v). To isolate the product of the reaction (i.e., [^14C]triacylglycerol), 1 ml heptane and 0.5 ml distilled water were added and then decocted. After taking 1 ml supernatant, 2 ml alkaline ethanol solution (ethanol:0.5 N sodium hydroxide:water=50:10:40, v:v:v) were added and then decocted. After taking 0.65 ml supernatant from the decoction, the amount of radiation was measured with liquid scintillation counter (LSC). The DGAT inhibitory activity was calculated with Mathematical Expression 1 below:
T denotes cpm of experimental group in which the enzymatic reaction solution was treated with the sample,
C denotes cpm of control group in which the enzymatic reaction solution was not treated with the sample, and
B denotes cpm of control group treated with the sample without zymogen.

Assay [2] deals with HepG2 cells. As to the kind of experiment: DGAT inhibitory effect in HepG2 cells (triglyceride production from [14C]glycerol). The assay is classed as cell-based. Particulars: Homo sapiens; for activity at 10 µM: HepG2, 6 h, DMSO control = 100, read-out: Triglyceride production rate (%)/HepG2 cells at 10 μM; for inhibition at 10 µM: HepG2, 10 μM, read-out: biosynthesis inhibition rate of triglyceride. The procedure: To investigate inhibition effect on intracellular DGAT enzyme activity of the compounds obtained in Examples 1-51, intracellular DGAT enzyme activity was measured using human-derived liver HepG2 cells.
HepG2 cells were purchased from ATCC, and cultured in 37° C., 5% CO2 incubator including minimum essential medium (2 mM L-glutamine, earle's BSS adjusted to contain 1.5 g/L sodium bicarbonate, 0.1 mM nonessential amino acids, and 1 mM sodium pyruvate) added with 10% fetal bovine serum (FBS) and 1% antibiotic (100 U/ml penicillin and 100 µg/ml streptomycin).
The intracellular DGAT enzyme activity was measured based on an amount of triglycerides produced in the cultured HepG2 cells, by adding 10 μM enzyme inhibitor compounds obtained in Examples 1-51, respectively, and then determining the effect of the enzyme inhibitors according to reduction rate of the triglyceride production.
Specifically, cells were seeded 1×10^6 cell/ml per well of the 24 well culture plate, and 24 hours after incubation, medium was exchanged with FBS-free DMEM medium, and sample of 0.2 mCi [^14C]glycerol (Amersham) was added as substrate, and the reaction was allowed to occur for 6 hr. The induced production of triglyceride was catalyzed by the DGAT enzyme, and DGAT enzyme activity was determined based on the amount of production of triglyceride which was measured based on the amount of radiation. The sample was dissolved in dimethylsulfoxide (DMSO) to be used, and the control group in the triglyceride production reaction was reacted with dimethylsulfoxide only (i.e., without sample), and the amount of the triglyceride production rate was set to 100.
After the reaction completed, the substrate [^14C]glycerol which was either not absorbed into cells or not used for the reaction, were removed with phosphate-buffer-saline (PBS), and 0.5 ml extraction solvent (hexane:isopropanol=3:2, v:v) was added to extract full fat containing triglycerides. With 0.5 ml extraction solvent, extract was obtained two times for 30 min each, and 1 ml of the extract was concentrated with nitrogen gas. After removing the extraction solvent, the total fat was dissolved in organic solvent (chloroform:methanol=2:1) and spotted with thin-layer chromatography (TLC:silica gel 60F254, thickness: 0.5 mm, Merck) on the developing solvent (hexane:diethyl ether:acetic acid=80:20:1, v: v: v). Triglycerides (Rf value: 0.4) were isolated on TLC, and after exposing the TLC plate to the film with photosensitivity to radiation energy (imaging plate' Fujifilm, BMS-MS 2040) for 3 hr, the amount of [^14C] radiation of triglyceride was measured by imaging analysis (FLA 7000). The remaining cells after the extraction were dissolved in 0.3 ml 0.1 N sodium hydroxide for use in the measurement of protein concentration of the cells used for the reaction.
The experimental errors among the respective experimental groups were compensated with the experimental value which was obtained by dividing the measured radiation of triglyceride by protein concentration, and the production rate of triglyceride according to the respective compounds of Examples 1-51 are tabulated below.

As a reminder, the IC50 is the point on the concentration scale where inhibition reaches its midpoint. The low end stands for greater potency in that assay, the high end for weaker potency in that assay. In assay [1], `CC(C)N(NC(=O)c1ccc(Br)cc1)C(=O)/C=C/c1cn(C(=O)OC(C)(C)C)c2ccccc12` [Example 13, (E)-tert-butyl 3-(3-(2-(4-bromobenzoyl)-1-isopropylhydrazinyl)-3-oxoprop-1-enyl)-1H-indole-1-carboxylate] gave an IC50 of 8.1 µM. Also, the activity at 10 µM in assay [2] was determined as 87.1%.

In turn, `CC(C)N(NC(=O)c1ccc(Cl)cc1)C(=O)/C=C/c1cn(C(=O)OC(C)(C)C)c2ccccc12` [Example 14, (E)-tert-butyl 3-(3-(2-(4-chlorobenzoyl)-1-isopropylhydrazinyl)-3-oxoprop-1-enyl)-1H-indole-1-carboxylate] showed an IC50 in assay [1] of 2.7 µM. The activity at 10 µM in assay [2] came to 84.4%.

Usually inhibition stands for the relative decrease from the control value, in per cent. Turning to `CC(C)N(NC(=O)c1cccc(F)c1)C(=O)/C=C/c1cn(C(=O)OC(C)(C)C)c2ccccc12` [Example 15, (E)-tert-butyl 3-(3-(2-(3-fluorobenzoyl)-1-isopropylhydrazinyl)-3-oxoprop-1-enyl)-1H-indole-1-carboxylate], the IC50 in assay [1] amounted to 1.1 µM. For the same molecule, in assay [2], the activity at 10 µM stood at 71.2% and the inhibition at 10 µM was in the range of 20 to 30%.

In the case of `CC(C)(C)OC(=O)n1cc(/C=C/C(=O)NNC(=O)c2ccccc2)c2ccccc21` [Example 16, (E)-tert-butyl 3-(3-(2-benzoylhydrazinyl)-3-oxoprop-1-enyl)-1H-indole-1-carboxylate], the IC50 in assay [1] amounted to 10.7 µM. In addition, in assay [2], the activity at 10 µM was 61.7% and the inhibition at 10 µM was 30 to 40%.

In assay [1], `CC(C)(C)OC(=O)n1cc(/C=C/C(=O)NNS(=O)(=O)c2ccccc2)c2ccccc21` [Example 17, (E)-tert-butyl 3-(3-oxo-3-(2-(phenylsulfonyl)hydrazinyl)prop-1-enyl)-1H-indole-1-carboxylate] yielded an IC50 greater than 100 µM. In addition, the activity at 10 µM in assay [2] was 81.7%.

Consider `COC(=O)COc1cccc(C(=O)NN(C(=O)/C=C/c2cn(C(=O)OC(C)(C)C)c3ccccc23)C(C)C)c1` [Example 18, (E)-tert-butyl 3-(3-(1-isopropyl-2-(3-(2-methoxy-2-oxoethoxy)benzoyl)hydrazinyl)-3-oxoprop-1-enyl)-1H-indole-1-carboxylate], for which half-maximal inhibition in assay [1] (IC50) required 3.2 µM. In addition, the activity at 10 µM in assay [2] worked out at 102%.

In assay [1], `CC(C)N(NC(=O)c1cccc(OCC(=O)O)c1)C(=O)/C=C/c1cn(C(=O)OC(C)(C)C)c2ccccc12` [Example 19, (E)-2-(3-(2-(3-(1-(tert-butoxycarbonyl)-1H-indol-3-yl)acryloyl)-2-isopropylhydrazinecarbonyl)phenoxy)acetic acid] yielded an IC50 greater than 100 µM. Besides, the activity at 10 µM in assay [2] amounted to 103%.

On to `CC(C)N(NC(=O)c1cccc(OCC(N)=O)c1)C(=O)/C=C/c1cn(C(=O)OC(C)(C)C)c2ccccc12` [Example 20, (E)-tert-butyl 3-(3-(2-(3-(2-amino-2-oxoethoxy)benzoyl)-1-isopropylhydrazinyl)-3-oxoprop-1-enyl)-1H-indole-1-carboxylate], for which the IC50 in assay [1] amounted to 73.3 µM. Also, the activity at 10 µM in assay [2] was found to be 109%.

In assay [1], `CC(C)N(NC(=O)c1ccccc1)C(=O)CCc1cn(Cc2ccccc2)c2ccccc12` [Example 21, N′-(3-(1-benzyl-1H-indol-3-yl)propanoyl)-N′-isopropylbenzohydrazide] had an IC50 of 29.6 µM. In addition, the activity at 10 µM in assay [2] came out at 103%.

Molecule `CC(C)N(NC(=O)c1ccccc1)C(=O)/C=C/c1c[nH]c2ccccc12` [Example 22, (E)-N′-(3-(1H-indol-3-yl)acryloyl)-N′-isopropylbenzohydrazide] displayed a 50% inhibitory concentration (IC50) in assay [1] of 44.6 µM. In assay [2], the activity at 10 µM came to 116%.

As for `CC(C)N(NC(=O)c1ccccc1)C(=O)CCc1c[nH]c2ccccc12` [Example 23, N′-(3-(1H-indol-3-yl)propanoyl)-N′-isopropylbenzohydrazide], in assay [1], inhibition was half-maximal at 25.8 µM (IC50). Moreover, the activity at 10 µM in assay [2] stood at 87.7%.

On to `CC(C)N(NC(=O)c1ccccc1)C(=O)CCc1cn(C(=O)OC(C)(C)C)c2ccccc12` [Example 24, tert-butyl 3-(3-(2-benzoyl-1-isopropylhydrazinyl)-3-oxopropyl)-1H-indole-1-carboxylate], for which, in assay [1], the IC50 amounted to 9.2 µM. In addition, in assay [2], the activity at 10 µM came to 60.7% and the inhibition at 10 µM fell in the range of 30 to 40%.

As for `CC(C)N(NC(=O)c1ccccc1)C(=O)/C=C/c1cn(C)c2ccccc12` [Example 25], in assay [1], half-maximal inhibition (IC50) required 29.2 µM. For the same molecule, in assay [2], the activity at 10 µM was determined as 88.6%.

Consider `CC(C)N(NC(=O)c1ccccc1)C(=O)/C=C/c1cn(Cc2ccccc2)c2ccccc12` [Example 26, (E)-N′-(3-(1-benzyl-1H-indol-3-yl)acryloyl)-N′-isopropylbenzohydrazide], for which the IC50 in assay [1] was 2.9 µM. In addition, in assay [2], the activity at 10 µM was determined as 59.8% and the inhibition at 10 µM lay within 30 to 40%.

The molecule `CC(C)=CCn1cc(/C=C/C(=O)N(NC(=O)c2ccccc2)C(C)C)c2ccccc21` [Example 27, (E)-N′-isopropyl-N′-(3-(1-(3-methylbut-2-enyl)-1H-indol-3-yl)acryloyl)benzohydrazide] registered an IC50 in assay [1] of 2.6 µM. In assay [2], the activity at 10 µM was found to be 58.5%.

Regarding `CC(C)N(NC(=O)c1ccccc1)C(=O)/C=C/c1cn(CC2CC2)c2ccccc12` [Example 28, (E)-N′-(3-(1-(cyclopropylmethyl)-1H-indol-3-yl)acryloyl)-N′-isopropylbenzohydrazide], it took 8.1 µM to reach half-maximal inhibition in assay [1] (IC50). Also, in assay [2], the activity at 10 µM turned out to be 64.4% and the inhibition at 10 µM was in the range of 30 to 40%.

`CC(C)N(NC(=O)c1ccccc1)C(=O)/C=C/c1cn(C2CC2)c2ccccc12` [Example 29, (E)-N′-(3-(1-cyclopropyl-1H-indol-3-yl)acryloyl)-N′-isopropylbenzohydrazide] registered an IC50 in assay [1] of 4.6 µM. In addition, in assay [2], the activity at 10 µM came to 59.6% and the inhibition at 10 µM fell in the range of 30 to 40%.

Molecule `CC(=O)n1cc(/C=C/C(=O)N(NC(=O)c2ccccc2)C(C)C)c2ccccc21` [Example 30, (E)-N′-(3-(1-acetyl-1H-indol-3-yl)acryloyl)-N′-isopropylbenzohydrazide] registered an IC50 in assay [1] of 27 µM. Also, the activity at 10 µM in assay [2] worked out at 89%.
